Experimental data published in paper PMC9654784, “Targeting SARS-CoV-2 nsp13 Helicase and Assessment of Druggability Pockets: Identification of Two Potent Inhibitors by a Multi-Site In Silico Drug Repurposing Approach” (Molecules, 2022).

How the values were obtained:
SARS-CoV-2 nsp13 [1] = biological target: T1, SARS-CoV-2 nsp13 (Severe acute respiratory syndrome coronavirus 2, UniProt P0DTD1); test: SARS-CoV-2 nsp13 unwinding-associated activity; format: biochemical; details: for IC50: concentration required to inhibit nsp13-associated unwinding activity by 50%, 1 nM nsp13, 1 mM ATP, 750 nM DNA substrate; for Percentage of control, unwinding activity: measured in the presence of the highest tested compound concentration
Method: (§1) The SARS-CoV-2 nsp13 his-tagged was expressed in E. coli BL21 Rosetta 2 cells from a pNIC-ZB (addgene #159614). A purification protocol was adopted from Newman et al.. Terrific Broth media was used to culture the cells at 37 °C and at 200 rpm until 1.6 OD600. Then, protein expression was induced with […] for 16 h at 18 °C, at 200 rpm, and then pelleted and resuspended in lysis buffer (50 mM HEPES pH 7.5, 500 mM NaCl, 5% Glycerol, 10 mM Imidazole, 0.5 mM TCEP, Merck Protease inhibitor cocktail III, 1:500). After sonication and clarification at 15,000× g for 30 min, the crude extract was used for a batch binding of 40 min in a three-dimensional rotating mixer with 5 mL of Ni-sepharose (cytiva) under orbital. Then, the tubes were centrifuged at 700× g at 4 °C for 5 min, and the resin was loaded onto a gravity flow column (econo column BioRad) connected to a BioLogic LP (BioRad). It was subsequently washed (1 mL/min) with a lysis buffer for 40 min and with a wash buffer (50 mM HEPES pH 7.5, 500 mM NaCl, 5% Glycerol, 45 mM Imidazole, 0.5 mM TCEP) for 25 min. A further 10 min wash with a Hi-salt buffer (50 mM HEPES pH 7.5, 1 M NaCl, 5% Glycerol, 0.5 mM TCEP) was performed, followed by another 10 min of wash buffer. Proteins were eluted with the addition of 15 mL of elution buffer (50 mM HEPES pH 7.5, 500 mM NaCl, 5% Glycerol, 300 mM Imidazole, 0.5 mM TCEP). The elution fraction was analyzed for purity by SDS page, and clean fractions were pooled and dialyzed against a desalting buffer containing 25 mM HEPES pH 7.5, 250 mM NaCl, 20% Glycerol, and 0.25 mM TCEP. Proteins were stored at −80 °C.
The SARS-CoV-2 nsp13 unwinding-associated activity was measured in black 384-well plates (PerkinElmer). The reaction mixture, as described in [34], contained 20 mM Tris–HCl pH 7.2. 50 mM NaCl, 2 mM MgCl2, 10 μg/mL of BSA, 180 μM TCEP, 2 μM Hel Capture oligo (5′- […] -3′) (Biomers) 5% DMSO or inhibitor, and 1 nM of purified nsp13. The enzyme was pre-incubated for 10 min with the inhibitor at room temperature, and then reaction was started by adding 1 mM ATP and 750 nM annealed DNA substrate (5′- […]-Cy3-3′. 5′- BHQ-2-[…]-3′) (Biomers). Reaction volume was 40 μL. Compounds SSYA10-001 and Licoflavone C were used as positive controls of inhibition; the reaction lasted for 15 min at 37 °C, and then the products were measured with Victor Nivo (Perkin) at 530/580 nm.

SARS-CoV-2 nsp13 [2] = biological target: T1, SARS-CoV-2 nsp13; test: SARS-CoV-2 nsp13 ATPase (NTPase)-associated activity; format: biochemical; details: for Percentage of control, NTPase activity: measured in the presence of the highest tested compound concentration
Method: as §1
The SARS-CoV-2 nsp13 helicase-associated activity was measured in a transparent 96-well plate (PerkinElmer), as described in [34]. Briefly, the reaction mixture contained 20 mM Tris–HCl pH 7.2, 50 mM NaCl, 2 mM MgCl2, 10 µg/mL of BSA, 180 µM TCEP, 5% DMSO or inhibitor, and 25 nM of purified nsp13. The reaction was started by adding 400 µM ATP. Total reaction volume was 25 μL. Compound Licoflavone C was used as positive control of inhibition. The reaction lasted for 30 min at 37 °C. […] The products were measured with Victor Nivo (Perkin) at 650 nm.

[3] = concentration required to inhibit nsp13-associated ATPase activity by 50%, 25 nM nsp13, 400 µM ATP

Compound	IC50 (SARS-CoV-2 nsp13 [1]) [µM]	Percentage of control, unwinding activity (SARS-CoV-2 nsp13 [1]) [%]	IC50 (SARS-CoV-2 nsp13 [2]; [3]) [µM]	Percentage of control, NTPase activity (SARS-CoV-2 nsp13 [2]) [%]	IC50 NTPase (SARS-CoV-2 nsp13 [2]; [3])
CCO/N=C(\C(=O)N[C@@H]1C(=O)N2C(C(=O)[O-])=C(Sc3nc(-c4cc[n+](C)cc4)cs3)CS[C@H]12)c1nsc(NP(=O)(O)O)n1 [Ceftaroline fosamil]	> 30	100	> 30	100	–
CC(C)=CCc1c(O)cc(O)c2c(=O)cc(-c3ccc(O)cc3)oc12 [Licoflavone C]	8.7 ± 1.3	–	20.9 ± 0.8	–	–
CC(C)(Cc1cccc(CC(=O)NCc2cccc(-c3ccc(O)cc3)c2)c1)NC[C@H](O)c1ccc(O)c(NS(C)(=O)=O)c1 [PF-00610355]	22.4 ± 1.7	–	> 30	100	not active
CC(C)(C)c1cc(NC(=O)NCc2ccccc2Sc2ccc3nnc(-c4ccccc4SCCO)n3c2)n(-c2ccc(O)c(Cl)c2)n1 [PF-03715455]	3.02 ± 0.21	–	9.26 ± 1.93	–	–
OC[C@H]1O[C@@H](Oc2cc(O)cc(/C=C/c3ccc(O)cc3)c2)[C@H](O)[C@@H](O)[C@@H]1O [Polydatin]	> 30	100	> 30	100	–
C=CCn1c(CSc2ccccc2[N+](=O)[O-])n[nH]c1=S [SSYA10-001]	2.3 ± 0.7	–	–	–	–
nicotinamide adenine dinucleotide [NADH]	–	100	–	100	–
